Earlier results in patent US8091801B2, “Generation of therapeutic microfoam” (BTG International Limited, priority 1999, dated 2012).

Conditions: in water at STP

SMILES	Mole Fraction Solubility
[He] [Helium]	0.7 10^−5
[N-]=[N+]=O [Nitrous oxide]	43.7 10^−5
O=O [Oxygen]	2.3 10^−5
